Data reported in paper PMC6715294 (Molecular cancer therapeutics, 2018).

Key:
[1] = molecular target: AKT1 (Homo sapiens, UniProt P31749); test: ADP-Glo kinase assay with active AKT1; format: biochemical
[2] = molecular target: AKT2 (Homo sapiens, UniProt P31751); test: ADP-Glo kinase assay with active AKT2; format: biochemical
AKT2, sequence (P31751 whole entry): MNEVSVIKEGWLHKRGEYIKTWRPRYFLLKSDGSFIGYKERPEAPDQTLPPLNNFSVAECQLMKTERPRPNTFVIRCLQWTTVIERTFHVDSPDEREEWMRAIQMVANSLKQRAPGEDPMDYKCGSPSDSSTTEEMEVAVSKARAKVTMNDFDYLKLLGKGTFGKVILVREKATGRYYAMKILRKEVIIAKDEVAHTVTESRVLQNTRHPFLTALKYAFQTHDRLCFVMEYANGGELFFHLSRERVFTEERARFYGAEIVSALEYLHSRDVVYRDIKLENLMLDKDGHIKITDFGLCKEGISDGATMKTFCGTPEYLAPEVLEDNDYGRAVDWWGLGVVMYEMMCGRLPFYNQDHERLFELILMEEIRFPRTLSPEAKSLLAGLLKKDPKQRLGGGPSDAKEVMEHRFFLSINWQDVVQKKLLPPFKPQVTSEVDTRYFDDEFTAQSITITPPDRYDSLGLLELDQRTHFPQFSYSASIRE

AKT1, sequence (P31749 whole entry): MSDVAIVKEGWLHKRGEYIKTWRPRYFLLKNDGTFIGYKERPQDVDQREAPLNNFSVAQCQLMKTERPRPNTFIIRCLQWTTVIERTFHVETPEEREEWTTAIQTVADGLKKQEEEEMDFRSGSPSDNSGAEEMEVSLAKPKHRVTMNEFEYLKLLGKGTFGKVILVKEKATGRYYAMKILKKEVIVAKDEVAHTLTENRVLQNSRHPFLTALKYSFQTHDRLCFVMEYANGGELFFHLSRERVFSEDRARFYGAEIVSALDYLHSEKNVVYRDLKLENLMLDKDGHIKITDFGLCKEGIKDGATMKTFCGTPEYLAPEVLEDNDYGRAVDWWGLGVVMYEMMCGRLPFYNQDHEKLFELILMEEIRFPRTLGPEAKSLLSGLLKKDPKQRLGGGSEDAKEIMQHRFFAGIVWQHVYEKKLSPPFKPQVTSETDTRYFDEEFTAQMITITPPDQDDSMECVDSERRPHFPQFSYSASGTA

With `C=C1C(=O)[C@]23[C@H](O)[C@H]1CC[C@H]2[C@@]12CO[C@]3(O)[C@@H](O)[C@@H]1C(C)(C)CC[C@@H]2O` [oridonin] as the molecule, how does the IC50 [1] read?
The IC50 was 8.4 ± 1.34 µM.

What about the IC50 [2] of the same molecule?
The IC50 was 8.9 ± 0.92 µM.
